In patent US11980620B2, “Compounds and methods for treatment of Diamond Blackfan anemia” (THE CHILDREN'S MEDICAL CENTER CORPORATION, priority 2017, dated 2024):

How the values were obtained:
[1] = Dose escalation tolerability in mice; assay type: in vivo; settings: dose escalation up to 20 mg/kg
Text: In following evaluation, the effects of administration of SMER28 to mice with irradiation-induced anemia, a model that enables dose-finding and initial testing of safety and bioactivity. […] To assess bioactivity, we measured the levels of autophagic marker LC3 in treated animals. […] (FIG. 10C). We tested the effect of this compound on human cells by treating NSG mice transplanted with human CD34-5F and CB cells. SMER28 increased the output of GlyA^+ RBCs from DBA CD34-5F cells (FIG. 10D).
Drug treatments. SMER28 was purchased from Tocris and diluted in 10 mM aliquots in DMSO. The final concentration for CD34-5F and CB CD34^+erythroid treatments was 0.2-10 μM as indicated in the text. The final concentration for K562 cell treatments was 20-40 μM. Ferric citrate (1-50 μM) and deferoxamine (100-200 μM) (Sigma) were dissolved in PBS and added on days 0-4 of “expansion” culture, and washed off prior to erythroid stage I (days 4-9) differentiation. For in vivo experiments, SMER28 aliquots were diluted in vehicle solution: 30% PEG-400, 5% propylene glycol, and 0.5% Tween-80. Dosing for human xenograft experiments was 2 mg/kg; for mouse models 10-20 mg/kg. Dexamethasone was purchased as Dex-sodium phosphate (DexSP) water-soluble formulation (Santa Cruz), and diluted in PBS vehicle (1 mg/kg). […]

[2] = test system: DBA CD34-5F cells; assay: Erythroid differentiation (CD71+GlyA+) of CD34-5F cells from DBA iPSCs; assay type: cell-based, human
Description: (FIG. 8A) The distribution of 1440 compounds by Z-score in a proliferation-based screen of the Sigma LOPAC chemical library. DBA CD34-5F cells were plated in erythroid-promoting conditions in 384-well format. Erythroid proliferation was measured in the presence of 5 μM of each compound, and converted into Z-scores. The screen was carried out with 3 RPS19 DBA and 2 normal iPSC lines. (FIG. 88) Dose-dependent effect of SMER28 (in μM) on erythroid differentiation, shown as the absolute number of erythroid cells in each drug-treated condition normalized to vehicle (DMSO) control. Erythroid cells were analyzed on day 9 of differentiation using markers CD71 and GlyA. Dose curve was performed with DBA (n=5) and control (n=3) iPSCs. Non-linear regression curve was plotted to calculate EC50 values. (FIGS. 8C and 8D) Dose-dependent effect of SMER28 (in μM) on erythroid differentiation of CB CD34^+ RPS19^+ cells. (FIG. 8C) Absolute number of erythroid cells (analyzed on day 9) in each drug-treated condition normalized to vehicle (DMSO) control (4 independent experiments). Non-linear regression curve was plotted to calculate EC50 values. (FIG. 8D) Representative flow plots of control (shLUC) and RPS19th cells treated with DMSO or increasing doses of SMER28.
(FIG. 12A) Erythroid differentiation of control and DBA CD34-5F cells treated with DMSO vehicle or SMER28 (10 μM) during the initial CD34^+ progenitor phase (day 0-4 of differentiation), or stage I of erythroid culture (day 4-9 of differentiation). Percent of erythroid cells after stage I of differentiation is indicated in top left for each condition, and quantitated in (FIG. 12B). Data are shown as mean f s.e.m. of 4 independent experiments, with 2 control and 4 DBA iPSCs. (FIG. 12C) Same as (FIG. 12A) for CB CD34+ cells transduced with shRPS19 hairpins. GFP^+ RPS19^sh and GFP^− control cells were quantitated separately. […] (FIG. 12D) RBC pellets at the end of stage III initiated with equal numbers of CD34-5F or CB progenitors. SMER28 was added at […]. (FIG. 12E) May-Grunwald-Giemsa stain of erythroid cells from CB CD34^+ at end of stage III. Arrows indicate enucleated RBCs, which are quantitated by flow cytometry. (FIG. 12F) Quantitation of the enucleation efficiency (left) of GLYA^+ cells. Data in FIGS. 12E-12F represents 3 independent experiments. For all panels, *p<0.05, **p<0.01.
Erythroid differentiation. Differentiation was performed essentially as described (Lee et al., 2015). CD34 expansion phase (4 days): To initiate differentiation CD34-5F cells were cultured in progenitor media without Dox. Stage I (5 days): Media were changed to: IMDM+1% BSA (Gibco), 20% FBS (Stem Cell Technologies), 1 mM L-glutamine, penicillin/streptomycin, 500 μg/ml h-transferrin (Sigma), 10 μg/ml human insulin (CellSciences), 1 μM β-estradiol, 1 μM Dex, 6U Epo (CellSciences), 100 μg/ml SCF, and 5 μg/ml IL-3. Cells were seeded at a density of <1×10^5 cells/ml in 24-well plates. Stage 11 (4 days). Media were changed to: IMDM+1% BSA, 20% FBS, 1 mM L-glutamine, penicillin/streptomycin, 500 μg/ml h-transferrin, 10 μg/ml human insulin, 6U Epo, and 50 μg/ml SCF. Cells were seeded at a density of <2×10^5 cells/ml in 24-well plates. Stage III (10 days) Media were changed to: IMDM+1% BSA, 20% FBS, 1 mM L-glutamine, penicillin/streptomycin, 500 μg/ml h-transferrin, 10 μg/ml human insulin, and 2U Epo. Cells were seeded at a density of <5×10^5 cells/ml in 24-well plates.
Drug treatments. […]

C=CCNc1ncnc2ccc(Br)cc12 [SMER28, 6-Bromo-N-2-propenyl-4-quinazolinam]
tolerability / overt toxicity [1]: well tolerated
output of GlyA+ cells ([2]; 10 μM, treated only during initial expansion phase (day 0-4), DBA progenitors): increased output
CD71+GlyA- pre-erythroblasts ([2]; 10 μM, treatment during stage I (day 4-9)): expanded
number of GlyA+ cells ([2]; 10 μM, treatment of erythroblasts during stage I (day 4-9)): did not significantly increase
effect on number of erythroid cells normalized to vehicle ([2]; DBA iPSCs): 9.8 fold
EC50 ([2]; Homo sapiens, iPSC, 216 h, RPS19+/- and RPL5 DBA iPSCs, day 9, normalized to DMSO, 95% confidence interval 0.63 to 2.37 μM, read-out: EC50, absolute number of CD71+GlyA+ erythroid cells): 1500 nM
